From ChEMBL document CHEMBL5257025, “Artemisinin-Derived Dimers: Potent Antimalarial and Anticancer Agents” (J Med Chem, 2016)

How the values were obtained:
Plasmodium falciparum [1] = test: Antimalarial activity against Plasmodium falciparum NF54 assessed as reduction in cell growth; assay type: functional, organism-based
KB = test: Antiproliferative activity against human KB cells assessed as reduction in cell viability incubated for 48 hrs by MTT assay; assay type: functional, cell-based
Plasmodium falciparum [2] = test: Antiplasmodial activity against Plasmodium falciparum NF54 assessed as reduction in malarial growth; assay type: functional, organism-based
MDA-MB-231 = test: Antiproliferative activity against human MDA-MB-231 cells assessed as reduction in cell viability measured after 48 hrs by MTT assay; assay type: functional, cell-based; conditions: MDA-MB-231, 48 h
A549 = test: cells; conditions: Homo sapiens, A549, 48 h
HT-29 = test: cells; conditions: Homo sapiens, HT-29, 72 h
[3] = Cytotoxicity against African green monkey Vero cells; assay type: toxicity, cell-based; conditions: chlorocebus sabaeus, read-out: TC50 (the source's name)
Plasmodium falciparum [4] = test: Antimalarial activity against Plasmodium falciparum K1 assessed as inhibition of malarial growth; assay type: functional, organism-based

`C[C@@H]1CC[C@H]2[C@@H](C)C(CC3(CC4O[C@H]5O[C@@]6(C)CC[C@H]7[C@H](C)CC[C@@H]([C@H]4C)[C@@]57OO6)CO3)O[C@H]3O[C@@]4(C)CC[C@@H]1[C@]32OO4` (stereo not given in full) gave an IC50 (Plasmodium falciparum [1]) of 0.0028 µM.
For `C[C@@H]1CC[C@H]2[C@@H](C)C(OC/C=C\COC3O[C@H]4O[C@@]5(C)CC[C@H]6[C@H](C)CC[C@@H]([C@H]3C)[C@@]46OO5)O[C@H]3O[C@@]4(C)CC[C@@H]1[C@]32OO4` (stereo not given in full), the IC50 (KB) was 0.32 µM.
In the case of `C[C@@H]1CC[C@H]2[C@@H](C)C(CC(COC(=O)c3ccncc3)CC3O[C@H]4O[C@@]5(C)CC[C@H]6[C@H](C)CC[C@@H]([C@H]3C)[C@@]46OO5)O[C@H]3O[C@@]4(C)CC[C@@H]1[C@]32OO4` (stereo not given in full), the IC50 (Plasmodium falciparum [1]) is reported as 0.0017 µM.
Compound `C[C@@H]1CC[C@H]2[C@@H](C)C(/C=C\c3ccc(/C=C\C4O[C@H]5O[C@@]6(C)CC[C@H]7[C@H](C)CC[C@@H]([C@H]4C)[C@@]57OO6)cc3)O[C@H]3O[C@@]4(C)CC[C@@H]1[C@]32OO4` (stereo not given in full) has an IC50 (Plasmodium falciparum [2]) of 0.018 µM.
Compound `C[C@@H]1CC[C@H]2[C@@H](C)C(OCCN/C(=N/c3cccc(Br)c3)NCCOC3O[C@@H]4O[C@]5(C)CC[C@@H]6[C@@H](C)CC[C@H]([C@@H]3C)[C@]46OO5)O[C@H]3O[C@@]4(C)CC[C@@H]1[C@]32OO4` (stereo not given in full) has an IC50 (MDA-MB-231) of 1.57 µM, an IC50 (A549) of 0.36 µM and an IC50 (HT-29) of 0.4 µM.
`C=C(CC1O[C@H]2O[C@@]3(C)CC[C@H]4[C@H](C)CC[C@@H]([C@H]1C)[C@@]24OO3)CC1O[C@H]2O[C@@]3(C)CC[C@H]4[C@H](C)CC[C@@H]([C@H]1C)[C@@]24OO3` (stereo not given in full) showed an IC50 (Plasmodium falciparum [1]) of 0.024 µM and an IC50 (Plasmodium falciparum [2]) of 0.024 µM.
In the case of `CCCC[C@@]1(C[C@@H]2C(=O)O[C@H]3O[C@@]4(C)CC[C@H]5[C@H](C)CC[C@@H]2[C@@]35OO4)O[C@H]2O[C@@]3(C)CC[C@H]4[C@H](C)CC[C@@H]([C@H]1C)[C@@]24OO3`, the CC50 [3] is reported as greater than 130 µM.
With `C[C@H]1[C@H](CC(=O)c2ccc(C(=O)CC[C@H]3O[C@H]4O[C@@]5(C)CC[C@H]6[C@H](C)CC[C@@H]([C@H]3C)[C@@]46OO5)cc2)O[C@H]2O[C@@]3(C)CC[C@H]4[C@H](C)CC[C@@H]1[C@@]24OO3` the IC50 (Plasmodium falciparum [1]) was 0.0039 µM and the IC50 (Plasmodium falciparum [2]) was 0.0017 µM.
`C[C@@H]1CC[C@H]2[C@@H](C)C(OCCN/C(=N/c3ccc(OC(F)(F)F)cc3)NCCOC3O[C@@H]4O[C@]5(C)CC[C@@H]6[C@@H](C)CC[C@H]([C@@H]3C)[C@]46OO5)O[C@H]3O[C@@]4(C)CC[C@@H]1[C@]32OO4` (stereo not given in full) showed an IC50 (A549) of 0.17 µM and an IC50 (HT-29) of 0.24 µM.
For `C[C@@H]1CC[C@H]2[C@@H](C)C(OCCN/C(=N/c3ccc(Cl)cc3)NCCOC3O[C@@H]4O[C@]5(C)CC[C@@H]6[C@@H](C)CC[C@H]([C@@H]3C)[C@]46OO5)O[C@H]3O[C@@]4(C)CC[C@@H]1[C@]32OO4` (stereo not given in full), the IC50 (MDA-MB-231) was 1.26 µM, the IC50 (A549) was 0.98 µM and the IC50 (HT-29) was 0.1 µM.
In the case of `C[C@@H]1CC[C@H]2[C@@H](C)C(/C=C\c3cccc(/C=C/C4O[C@H]5O[C@@]6(C)CC[C@H]7[C@H](C)CC[C@@H]([C@H]4C)[C@@]57OO6)c3)O[C@H]3O[C@@]4(C)CC[C@@H]1[C@]32OO4` (stereo not given in full), the IC50 (Plasmodium falciparum [2]) is reported as 0.035 µM.
In the case of `C[C@@H]1CC[C@H]2[C@@H](C)C(CCOCc3ccc(COCCC4O[C@H]5O[C@@]6(C)CC[C@H]7[C@H](C)CC[C@@H]([C@H]4C)[C@@]57OO6)cc3)O[C@H]3O[C@@]4(C)CC[C@@H]1[C@]32OO4` (stereo not given in full), the IC50 (Plasmodium falciparum [4]) is reported as 0.0024 µM.
Work on `C[C@@H]1CC[C@H]2[C@@H](C)C(CC(COS(=O)(=O)c3cccc4c(N(C)C)cccc34)CC3O[C@H]4O[C@@]5(C)CC[C@H]6[C@H](C)CC[C@@H]([C@H]3C)[C@@]46OO5)O[C@H]3O[C@@]4(C)CC[C@@H]1[C@]32OO4` (stereo not given in full) yielded an IC50 (Plasmodium falciparum [1]) of 0.0039 µM.
For `CCC[C@@]1(C[C@@H]2C(=O)O[C@H]3O[C@@]4(C)CC[C@H]5[C@H](C)CC[C@@H]2[C@@]35OO4)O[C@H]2O[C@@]3(C)CC[C@H]4[C@H](C)CC[C@@H]([C@H]1C)[C@@]24OO3`, the CC50 [3] was greater than 130 µM.
Compound `C[C@@H]1CC[C@H]2[C@@H](C)C(OCCN/C(=N/c3ccc(C(F)(F)F)cc3)NCCOC3O[C@@H]4O[C@]5(C)CC[C@@H]6[C@@H](C)CC[C@H]([C@@H]3C)[C@]46OO5)O[C@H]3O[C@@]4(C)CC[C@@H]1[C@]32OO4` (stereo not given in full) has an IC50 (MDA-MB-231) of 1.18 µM, an IC50 (A549) of 0.68 µM and an IC50 (HT-29) of 0.06 µM.
Compound `C[C@@H]1CC[C@H]2[C@@H](C)C(OCCN/C(=N/c3ccc(Cl)cc3Cl)NCCOC3O[C@@H]4O[C@]5(C)CC[C@@H]6[C@@H](C)CC[C@H]([C@@H]3C)[C@]46OO5)O[C@H]3O[C@@]4(C)CC[C@@H]1[C@]32OO4` (stereo not given in full) has an IC50 (MDA-MB-231) of 2.08 µM, an IC50 (A549) of 0.64 µM and an IC50 (HT-29) of 0.05 µM.
`C[C@@H]1CC[C@H]2[C@@H](C)C(CC(=O)CC3O[C@H]4O[C@@]5(C)CC[C@H]6[C@H](C)CC[C@@H]([C@H]3C)[C@@]46OO5)O[C@H]3O[C@@]4(C)CC[C@@H]1[C@]32OO4` (stereo not given in full) gave an IC50 (Plasmodium falciparum [1]) of 0.00091 µM.
With `C[C@@H]1CC[C@H]2[C@@H](C)C(OCCN/C(=N/c3cccc(Cl)c3)NCCOC3O[C@@H]4O[C@]5(C)CC[C@@H]6[C@@H](C)CC[C@H]([C@@H]3C)[C@]46OO5)O[C@H]3O[C@@]4(C)CC[C@@H]1[C@]32OO4` (stereo not given in full) the IC50 (MDA-MB-231) was 1.17 µM, the IC50 (A549) was 0.72 µM and the IC50 (HT-29) was 0.1 µM.
Compound `C[C@@H]1CC[C@H]2[C@@H](C)C(CC(O)(CCS(=O)(=O)c3ccc(C(=O)O)cc3)CC3O[C@H]4O[C@@]5(C)CC[C@H]6[C@H](C)CC[C@@H]([C@H]3C)[C@@]46OO5)O[C@H]3O[C@@]4(C)CC[C@@H]1[C@]32OO4` (stereo not given in full) has an IC50 (Plasmodium falciparum [1]) of 0.0024 µM.
In the case of `C[C@@H]1CC[C@H]2[C@@H](C)C(CC#Cc3cccc(C#CCC4O[C@H]5O[C@@]6(C)CC[C@H]7[C@H](C)CC[C@@H]([C@H]4C)[C@@]57OO6)c3)O[C@H]3O[C@@]4(C)CC[C@@H]1[C@]32OO4` (stereo not given in full), the IC50 (Plasmodium falciparum [2]) is reported as 0.036 µM.
`C[C@H]1[C@H](CCC(=O)c2ccc(C(=O)C[C@@H]3O[C@H]4O[C@@]5(C)CC[C@H]6[C@H](C)CC[C@@H]([C@H]3C)[C@@]46OO5)cc2)O[C@H]2O[C@@]3(C)CC[C@H]4[C@H](C)CC[C@@H]1[C@@]24OO3` gave an IC50 (Plasmodium falciparum [2]) of 0.0019 µM.
`C[C@@H]1CC[C@H]2[C@@H](C)C(OCCN/C(=N/c3cccc(F)c3)NCCOC3O[C@@H]4O[C@]5(C)CC[C@@H]6[C@@H](C)CC[C@H]([C@@H]3C)[C@]46OO5)O[C@H]3O[C@@]4(C)CC[C@@H]1[C@]32OO4` (stereo not given in full) showed an IC50 (MDA-MB-231) of 1.33 µM and an IC50 (HT-29) of 0.09 µM.
In the case of `C[C@@H]1CC[C@H]2[C@@H](C)C(CC(O)(COC(=O)CCC(=O)O)CC3O[C@H]4O[C@@]5(C)CC[C@H]6[C@H](C)CC[C@@H]([C@H]3C)[C@@]46OO5)O[C@H]3O[C@@]4(C)CC[C@@H]1[C@]32OO4` (stereo not given in full), the IC50 (Plasmodium falciparum [1]) is reported as 0.003 µM.
Work on `C[C@@H]1CC[C@H]2[C@@H](C)C(CC(COC(=O)c3cc(=O)oc4cc(N(C)C)ccc34)CC3O[C@H]4O[C@@]5(C)CC[C@H]6[C@H](C)CC[C@@H]([C@H]3C)[C@@]46OO5)O[C@H]3O[C@@]4(C)CC[C@@H]1[C@]32OO4` (stereo not given in full) yielded an IC50 (Plasmodium falciparum [1]) of 0.0024 µM.
Work on `C[C@@H]1CC[C@H]2[C@@H](C)C(OCCN/C(=N/c3cc(C(F)(F)F)ccc3F)NCCOC3O[C@@H]4O[C@]5(C)CC[C@@H]6[C@@H](C)CC[C@H]([C@@H]3C)[C@]46OO5)O[C@H]3O[C@@]4(C)CC[C@@H]1[C@]32OO4` (stereo not given in full) yielded an IC50 (MDA-MB-231) of 1.42 µM, an IC50 (A549) of 0.24 µM and an IC50 (HT-29) of 0.02 µM.
`C[C@@H]1CC[C@H]2[C@@H](C)C(/C=C/c3cccc(/C=C/C4O[C@@H]5O[C@]6(C)CC[C@@H]7[C@@H](C)CC[C@H]([C@@H]4C)[C@]57OO6)c3)O[C@H]3O[C@@]4(C)CC[C@@H]1[C@]32OO4` (stereo not given in full) showed an IC50 (Plasmodium falciparum [2]) of 0.077 µM.
In the case of `C[C@@H]1CC[C@H]2[C@@H](C)C(CC(O)(CC3O[C@@H]4O[C@]5(C)CC[C@@H]6[C@@H](C)CC[C@H]([C@@H]3C)[C@]46OO5)c3ccc(C(=O)O)cc3)O[C@H]3O[C@@]4(C)CC[C@@H]1[C@]32OO4` (stereo not given in full), the IC50 (Plasmodium falciparum [1]) is reported as 0.0021 µM.
In the case of `CCCCCC[C@@]1(C[C@@H]2C(=O)O[C@H]3O[C@@]4(C)CC[C@H]5[C@H](C)CC[C@@H]2[C@@]35OO4)O[C@H]2O[C@@]3(C)CC[C@H]4[C@H](C)CC[C@@H]([C@H]1C)[C@@]24OO3`, the CC50 [3] is reported as 2.5 µM and the IC50 (KB) is reported as 4 µM.
`C[C@@H]1CC[C@H]2[C@@H](C)C(CC(O)(CO)CC3O[C@H]4O[C@@]5(C)CC[C@H]6[C@H](C)CC[C@@H]([C@H]3C)[C@@]46OO5)O[C@H]3O[C@@]4(C)CC[C@@H]1[C@]32OO4` (stereo not given in full) showed an IC50 (Plasmodium falciparum [1]) of 0.00059 µM.
For `COc1cc(OC)c(C2O[C@H]3O[C@@]4(C)CC[C@H]5[C@H](C)CC[C@@H]([C@H]2C)[C@@]35OO4)cc1C1O[C@H]2O[C@@]3(C)CC[C@H]4[C@H](C)CC[C@@H]([C@H]1C)[C@@]24OO3` (stereo not given in full), the IC50 (Plasmodium falciparum [2]) was 0.0013 µM.
Work on `C[C@@H]1CC[C@H]2[C@@H](C)C(CC#Cc3ccc(C#CCC4O[C@H]5O[C@@]6(C)CC[C@H]7[C@H](C)CC[C@@H]([C@H]4C)[C@@]57OO6)cc3)O[C@H]3O[C@@]4(C)CC[C@@H]1[C@]32OO4` (stereo not given in full) yielded an IC50 (Plasmodium falciparum [2]) of 0.03 µM.
Compound `C[C@@H]1CC[C@H]2[C@@H](C)C(CC(=O)c3cccc(C(=O)CC4O[C@H]5O[C@@]6(C)CC[C@H]7[C@H](C)CC[C@@H]([C@H]4C)[C@@]57OO6)c3)O[C@H]3O[C@@]4(C)CC[C@@H]1[C@]32OO4` (stereo in doubt) has an IC50 (Plasmodium falciparum [2]) of 0.0019 µM.
Work on `CCN(CC)CCCC(C)Nc1ccnc2cc(Cl)ccc12` (stereo not given) [CHLOROQUINE] yielded a CC50 [3] greater than 14.9 µM.
